PubChem BioAssay (NCI)
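Test compounds were applied to cells in 96-well plates for 48 hours at 5 doses. TGI is the concentration that stops growth completely.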

Experiments:
Assay in all cases: NCI anticancer screen, dose series, 48 h
NCI-H23 lung = tested on: NCI-H23 lung
HCT-116 colon = tested on: HCT-116 colon
UACC-257 melanoma = tested on: UACC-257 melanoma
SK-MEL-2 melanoma = tested on: SK-MEL-2 melanoma
DU-145 prostate = tested on: DU-145 prostate
UO-31 renal = tested on: UO-31 renal
RPMI-8226 leukemia = tested on: RPMI-8226 leukemia
MDA-N = tested on: MDA-N
OVCAR-8 ovarian = tested on: OVCAR-8 ovarian
HT29 colon = tested on: HT29 colon
SR leukemia = tested on: SR leukemia
CCRF-CEM leukemia = tested on: CCRF-CEM leukemia
OVCAR-3 ovarian = tested on: OVCAR-3 ovarian
HCT-15 colon = tested on: HCT-15 colon
OVCAR-5 ovarian = tested on: OVCAR-5 ovarian
T-47D breast = tested on: T-47D breast
MOLT-4 leukemia = tested on: MOLT-4 leukemia
IGROV1 ovarian = tested on: IGROV1 ovarian
SK-MEL-28 melanoma = tested on: SK-MEL-28 melanoma
A549 NSCLC = tested on: A549 NSCLC
RXF 393 renal = tested on: RXF 393 renal
BT-549 breast = tested on: BT-549 breast
COLO 205 colon = tested on: COLO 205 colon
MDA-MB-231 breast = tested on: MDA-MB-231 breast
NCI/ADR-RES ovarian = tested on: NCI/ADR-RES ovarian
NCI-H522 lung = tested on: NCI-H522 lung
EKVX NSCLC = tested on: EKVX NSCLC
HL-60(TB) leukemia = tested on: HL-60(TB) leukemia
UACC-62 melanoma = tested on: UACC-62 melanoma
SNB-75 CNS = tested on: SNB-75 CNS
NCI-H460 lung = tested on: NCI-H460 lung
SK-MEL-5 melanoma = tested on: SK-MEL-5 melanoma
SF-539 CNS = tested on: SF-539 CNS
LOX IMVI melanoma = tested on: LOX IMVI melanoma
U251 CNS = tested on: U251 CNS
ACHN renal = tested on: ACHN renal
SF-268 CNS = tested on: SF-268 CNS
CAKI-1 renal = tested on: CAKI-1 renal
MDA-MB-435 = tested on: MDA-MB-435
SF-295 CNS = tested on: SF-295 CNS
HOP-92 NSCLC = tested on: HOP-92 NSCLC
HS 578T breast = tested on: HS 578T breast
NCI-H226 lung = tested on: NCI-H226 lung
MALME-3M melanoma = tested on: MALME-3M melanoma
MCF7 breast = tested on: MCF7 breast
KM12 colon = tested on: KM12 colon
M14 melanoma = tested on: M14 melanoma
SN12C renal = tested on: SN12C renal
PC-3 prostate = tested on: PC-3 prostate
SK-OV-3 ovarian = tested on: SK-OV-3 ovarian
SNB-19 CNS = tested on: SNB-19 CNS
786-0 renal = tested on: 786-0 renal
SW-620 colon = tested on: SW-620 colon
K-562 leukemia = tested on: K-562 leukemia
TK-10 renal = tested on: TK-10 renal
A498 renal = tested on: A498 renal
HOP-62 NSCLC = tested on: HOP-62 NSCLC
OVCAR-4 ovarian = tested on: OVCAR-4 ovarian
HCC-2998 colon = tested on: HCC-2998 colon

**Q.** What does the source list for CO[C@@H](c1ccccc1)[C@H](O)[C@@](O)(c1ccccc1)P(=O)(OC)OC?
**A.** TGI (NCI-H23 lung): > 100 µM; TGI (HCT-116 colon): > 100 µM; TGI (UACC-257 melanoma): > 100 µM; TGI (SK-MEL-2 melanoma): > 100 µM; TGI (DU-145 prostate): > 100 µM; TGI (UO-31 renal): > 100 µM; TGI (RPMI-8226 leukemia): > 100 µM; TGI (MDA-N): > 100 µM; TGI (OVCAR-8 ovarian): > 100 µM; TGI (HT29 colon): > 100 µM; TGI (SR leukemia): > 100 µM; TGI (CCRF-CEM leukemia): > 100 µM; TGI (OVCAR-3 ovarian): > 100 µM; TGI (HCT-15 colon): > 100 µM; TGI (OVCAR-5 ovarian): > 100 µM; TGI (T-47D breast): > 100 µM; TGI (MOLT-4 leukemia): > 100 µM; TGI (IGROV1 ovarian): > 100 µM; TGI (SK-MEL-28 melanoma): > 100 µM; TGI (A549 NSCLC): > 100 µM; TGI (RXF 393 renal): > 100 µM; TGI (BT-549 breast): > 100 µM; TGI (COLO 205 colon): > 100 µM; TGI (MDA-MB-231 breast): > 100 µM; TGI (NCI/ADR-RES ovarian): > 100 µM; TGI (NCI-H522 lung): > 100 µM; TGI (EKVX NSCLC): > 100 µM; TGI (HL-60(TB) leukemia): > 100 µM; TGI (UACC-62 melanoma): > 100 µM; TGI (SNB-75 CNS): > 100 µM; TGI (NCI-H460 lung): > 100 µM; TGI (SK-MEL-5 melanoma): > 100 µM; TGI (SF-539 CNS): > 100 µM; TGI (LOX IMVI melanoma): > 100 µM; TGI (U251 CNS): > 100 µM; TGI (ACHN renal): > 100 µM; TGI (SF-268 CNS): > 100 µM; TGI (CAKI-1 renal): > 100 µM; TGI (MDA-MB-435): > 100 µM; TGI (SF-295 CNS): > 100 µM; TGI (HOP-92 NSCLC): > 100 µM; TGI (HS 578T breast): > 100 µM; TGI (NCI-H226 lung): > 100 µM; TGI (MALME-3M melanoma): > 100 µM; TGI (MCF7 breast): > 100 µM; TGI (KM12 colon): > 100 µM; TGI (M14 melanoma): > 100 µM; TGI (SN12C renal): > 100 µM; TGI (PC-3 prostate): > 100 µM; TGI (SK-OV-3 ovarian): > 100 µM; TGI (SNB-19 CNS): > 100 µM; TGI (786-0 renal): > 100 µM; TGI (SW-620 colon): > 100 µM; TGI (K-562 leukemia): > 100 µM; TGI (TK-10 renal): > 100 µM; TGI (A498 renal): > 100 µM

**Q.** O=C1Cc2c(-c3ccccc3)cc(-c3ccc(Cl)cc3)nc2-c2ccccc2N1 was tested. Which TGI (HOP-62 NSCLC) did it give?
**A.** 12.9 µM

**Q.** And the TGI (OVCAR-4 ovarian)?
**A.** 3.82 µM

**Q.** And the TGI (NCI-H23 lung)?
**A.** 17.8 µM

**Q.** And the TGI (HCT-116 colon)?
**A.** 11.9 µM

**Q.** What about the TGI (UACC-257 melanoma) of the same compound?
**A.** > 58.2 µM

**Q.** And the TGI (SK-MEL-2 melanoma)?
**A.** 49.4 µM

**Q.** What about the TGI (DU-145 prostate) of the same compound?
**A.** > 90.2 µM

**Q.** What about the TGI (UO-31 renal) of the same compound?
**A.** 7.31 µM

**Q.** What about the TGI (RPMI-8226 leukemia) of the same compound?
**A.** > 100 µM

**Q.** What about the TGI (MDA-N) of the same compound?
**A.** 35.4 µM

**Q.** What about the TGI (OVCAR-8 ovarian) of the same compound?
**A.** 9.09 µM

**Q.** What about the TGI (HT29 colon) of the same compound?
**A.** > 46.8 µM

**Q.** What about the TGI (SR leukemia) of the same compound?
**A.** > 100 µM

**Q.** And the TGI (CCRF-CEM leukemia)?
**A.** > 53.4 µM

**Q.** And the TGI (OVCAR-3 ovarian)?
**A.** 22.8 µM

**Q.** What about the TGI (HCT-15 colon) of the same compound?
**A.** > 55 µM

**Q.** And the TGI (OVCAR-5 ovarian)?
**A.** > 83.7 µM

**Q.** And the TGI (T-47D breast)?
**A.** 17.8 µM

**Q.** And the TGI (MOLT-4 leukemia)?
**A.** > 84.8 µM

**Q.** What about the TGI (IGROV1 ovarian) of the same compound?
**A.** 35.9 µM

**Q.** And the TGI (SK-MEL-28 melanoma)?
**A.** > 31.8 µM

**Q.** What about the TGI (HCC-2998 colon) of the same compound?
**A.** 33.4 µM

**Q.** What about the TGI (A549 NSCLC) of the same compound?
**A.** 35.3 µM

**Q.** And the TGI (RXF 393 renal)?
**A.** 17.3 µM

**Q.** And the TGI (BT-549 breast)?
**A.** 40.2 µM

**Q.** And the TGI (COLO 205 colon)?
**A.** 18 µM

**Q.** What about the TGI (MDA-MB-231 breast) of the same compound?
**A.** 19.2 µM

**Q.** And the TGI (NCI/ADR-RES ovarian)?
**A.** 14.8 µM

**Q.** And the TGI (NCI-H522 lung)?
**A.** 12.8 µM

**Q.** What about the TGI (EKVX NSCLC) of the same compound?
**A.** > 43.6 µM

**Q.** And the TGI (HL-60(TB) leukemia)?
**A.** > 100 µM

**Q.** What about the TGI (UACC-62 melanoma) of the same compound?
**A.** > 31 µM

**Q.** What about the TGI (SNB-75 CNS) of the same compound?
**A.** 8.77 µM

**Q.** What about the TGI (NCI-H460 lung) of the same compound?
**A.** 11.5 µM

**Q.** What about the TGI (SK-MEL-5 melanoma) of the same compound?
**A.** 17 µM

**Q.** What about the TGI (SF-539 CNS) of the same compound?
**A.** 19.8 µM

**Q.** What about the TGI (LOX IMVI melanoma) of the same compound?
**A.** 21.9 µM

**Q.** And the TGI (U251 CNS)?
**A.** 10.5 µM

**Q.** And the TGI (ACHN renal)?
**A.** 7.36 µM

**Q.** What about the TGI (SF-268 CNS) of the same compound?
**A.** 20 µM

**Q.** And the TGI (CAKI-1 renal)?
**A.** 16.2 µM

**Q.** What about the TGI (MDA-MB-435) of the same compound?
**A.** > 45.7 µM

**Q.** And the TGI (SF-295 CNS)?
**A.** 23.7 µM

**Q.** And the TGI (HOP-92 NSCLC)?
**A.** 8.72 µM

**Q.** And the TGI (HS 578T breast)?
**A.** 11.8 µM

**Q.** And the TGI (NCI-H226 lung)?
**A.** 22 µM

**Q.** What about the TGI (MALME-3M melanoma) of the same compound?
**A.** > 34.4 µM

**Q.** And the TGI (MCF7 breast)?
**A.** > 72.2 µM

**Q.** And the TGI (KM12 colon)?
**A.** 96.1 µM

**Q.** And the TGI (M14 melanoma)?
**A.** > 70.4 µM

**Q.** What about the TGI (SN12C renal) of the same compound?
**A.** 16.9 µM

**Q.** What about the TGI (PC-3 prostate) of the same compound?
**A.** > 57.7 µM

**Q.** What about the TGI (SK-OV-3 ovarian) of the same compound?
**A.** 7.85 µM

**Q.** And the TGI (SNB-19 CNS)?
**A.** 6.35 µM

**Q.** What about the TGI (786-0 renal) of the same compound?
**A.** 3.51 µM

**Q.** What about the TGI (SW-620 colon) of the same compound?
**A.** > 47.6 µM

**Q.** What about the TGI (K-562 leukemia) of the same compound?
**A.** > 100 µM

**Q.** And the TGI (TK-10 renal)?
**A.** 14.3 µM

**Q.** What about the TGI (A498 renal) of the same compound?
**A.** 3.67 µM
